Assay results from patent publication US5958770A, “Glycoalkaloids” (priority 1990, dated 1999).
“Also recorded” adds a separate entry of the source. Like-named read-outs stand apart in the source and are kept apart here.

What was measured:
ovarian cancer cells = assay: Inhibition of tritiated thymidine uptake, ovarian cancer cells
Description: (§1) The inhibition of cell replication by steroid alkaloids is determined by the inhibition of the incorporation of ^3 H thymidine into DNA. Using this technique, it should be possible to monitor any preferential inhibition of uptake of ^3 H thymidine by cancer cells.
(§2) Cells were maintained as monolayers in RPM1-1640 tissue culture media (Grant Island Biological Co) buffered with N-2-hydroxy-ethylpiperazine-N-2-ethanesulphonic acid pH 7.5 and supplemented with 10% heat inactivated fetal calf serum (FCS): (i) a human ovarian cancer cell line (C180-135), (ii) HeLa cells, (iii) human fibroblasts, and (iv) as a cell suspension of lymphoblastoid cells (EBV transformed lymphocytes). Monolayers were trypsinized to form a cell suspension. […] Cell concentration was adjusted to 2×10^5 cells/ml, and 2×10^4 cells were added in replicates of 10 to the wells (1×10^5 /ml well) of HA microtitre plates (Millipore Corp., USA). The cells were preincubated at 37.5° C. for 7 hours prior to the addition of 50 μl of the cytotoxic drug followed by the addition of 50 μl 5 uCi/ml of ^3 H thymidine, in the same tissue culture media 21 hours later. Incubation was continued for a total of 24 hours, which includes the pre-incubation time.
(§3) Appropriate DMSO cytotoxicity studies were also conducted. Solasodine glycosides were supplied as a mixture (BEC), and as separate components, solamargine, solasonine, a mixture of di- and mono-glycosides and the aglycone solasodine. All cytotoxic drugs were further diluted with HIFCS/TCM before testing. 5×10^4 ovarian cancer cells (200 μl/chamber of a chamber of microscope slide (Lab Tek Miles Scientific) were used. Controls received 50 μl HIFCS/TCM and experimental chambers 50 μl of solasodine glycosides (BEC) 1.5-3.8 μM/L after 7 hrs preincubation, and incubated for a further 3 hrs. Similarly, the cells were treated with the aglycone solasodine 19.4-96.8 μM/L. The cells were fixed and examined by the Papanicolaou method.

HeLa cells [1] = assay: cells
Description: as §1, §2, §3

human fibroblasts = assay: cells; settings: for TR50 (thymidine ratio relative to ovarian cancer cells): FB / OvCa
Description: as §1, §2, §3

[2] = tested on: lymphoblastoid cells (EBV transformed lymphocytes); assay: cells; settings: for TR50 (thymidine ratio relative to ovarian cancer cells): LCL / OvCa
Description: as §1, §2, §3

HeLa cells [3] = assay: Solamargine cytotoxicity in presence and absence of carbohydrates, HeLa cells; type: cell-based, human; settings: Homo sapiens, HeLa, solamargine 2.4 μM/L, read-out: Percentage Survival
Description: (§4) A mixture of solasodine glycosides (BEC), of which the active compound is solamargine and from which the aglycone solasodine is derived was prepared for use in cytotoxicity assays as determined by the uptake of tritiated thymidine. Inhibition studies were carried out with lactose, lactosyl-albumin, galactose or rhamnose (Sigma Chemical Co., USA). All experimental replicates were related to their own controls. Total volume of replicates was 250 μl (carbohydrates added in 50 μl tissue culture media+10% fetal calf serum), and the cell concentrations were 8×10^4 /ml.

lymphoblastoid cells = assay: Solamargine cytotoxicity in presence and absence of carbohydrates, lymphoblastoid cells; type: cell-based; settings: Homo sapiens, Lymphoblastoid cell, LCL, solamargine 3.1 μM/L, read-out: Percentage Survival
Description: as §4

fibroblasts = assay: Solamargine cytotoxicity in presence and absence of carbohydrates, fibroblasts; type: cell-based, human; settings: Homo sapiens, Fibroblast, Fb, solamargine 3.1 μM/L, read-out: Percentage Survival
Description: as §4

human spermatozoa = assay: Immobilization of spermatozoa; type: cell-based; settings: for effect on spermatozoa (words): solamargine/eosin, FIG. 5
Description: In order to observe any immobilization of spermatozoa, sperm (10×10^6 /ml) (50 μl) were placed on a microscope slide separated from 50 μl of solamargine (1 mg/ml) by 5 μl of eosin. A cover slip was then placed over the slide. […] This is a standard method known in the art. It was noted that sperm was not present on the side of the slide where the drop of solasodine glycosides was placed.

[4] = tested on: ovarian cancer cells, HeLa cells, lymphoblastoid cells, fibroblasts; assay: Cytotoxicity / inhibition of tritiated thymidine uptake, cell types taken together
Description: as §1, §2, §3

in vitro [5] = settings: human, unstimulated lymphocytes
Description: (§5) This was cultured for 48 hours and pulsed with tritiated thymidine for a further 24 hours. In the inhibition studies, the cell concentration was 8×10^5 /ml.
(§6) All cells were harvested by vacuum filtration by washing in 250 μl of each of phosphate buffered saline, 5% trichloroacetic acid, 1.0M NaCl and 95% ethanol and subjected to β-scintillatian counting. Similarly, peripheral human blood lymphocytes were isolated and cultured 2×10^5 lymphocytes in CO2 1640TCM 10% HIFCS. Lymphocytes were stimulated with 20 μg/ml PHA, Con A or PWM, and cultured for 48 hrs followed by a 24 hr pulse. […] Cell concentrations were 8×10^4 /well total volume 250 μl. The dpm of the experimental replicates were expressed as a percentage of the mean value of the controls, and the mean value of the experimental replicates calculated.

in vitro [6] = settings: human, pha stimulated lymphocytes
Description: as §5, §6

unstimulated lymphocytes = assay: Inhibition of tritiated thymidine uptake, unstimulated lymphocytes; settings: unstimulated lymphocytes
Description: as §5, §6

[7] = tested on: PHA stimulated lymphocytes; assay: Inhibition of tritiated thymidine uptake, PHA stimulated lymphocytes; settings: PHA stimulated lymphocytes
Description: as §5, §6

[8] = tested on: PWM stimulated lymphocytes; assay: Inhibition of tritiated thymidine uptake, PWM stimulated lymphocytes; settings: PWM stimulated lymphocytes
Description: as §5, §6

[9] = tested on: Con A stimulated lymphocytes; assay: Inhibition of tritiated thymidine uptake, Con A stimulated lymphocytes; settings: Con A stimulated lymphocytes
Description: as §5, §6

[10] = 1.1 μM/L galactose, *** p < 0.001
[11] = 1.1 μM/L lactose, *** p < 0.001

C[C@@H]1CC[C@@]2(NC1)O[C@H]1C[C@H]3[C@@H]4CC=C5C[C@@H](O[C@@H]6O[C@H](CO)[C@@H](O[C@@H]7O[C@@H](C)[C@H](O)[C@@H](O)[C@H]7O)[C@H](O)[C@H]6O[C@@H]6O[C@@H](C)[C@H](O)[C@@H](O)[C@H]6O)CC[C@]5(C)[C@H]4CC[C@]3(C)[C@H]1[C@@H]2C [Solamargine, solamargine]
IC50 (ovarian cancer cells; Homo sapiens, read-out: LD50 (dose to inhibit 50% tritiated thymidine uptake)): 1.55 µM | viability at 11.5 µM (ovarian cancer cells; Homo sapiens, read-out: Percentage Cell Survival): 7 ± 0.8% | LD50 of solamargine less than that of vinblastine, chlorambucil or cis-platinum (ovarian cancer cells; ovarian cancer cells, fold lower): 6-40 times | TR50 (thymidine ratio relative to ovarian cancer cells) (HeLa cells [1]; HeLa / OvCa): 1.6 | IC50 (HeLa cells [1]; Homo sapiens, HeLa, read-out: LD50 (dose to inhibit 50% tritiated thymidine uptake)): 2.5 µM | viability at 11.5 µM (HeLa cells [1]; Homo sapiens, HeLa, read-out: Percentage Cell Survival): 2.6 ± 0.5% | TR50 (thymidine ratio relative to ovarian cancer cells) (human fibroblasts; listed as Solam): 2.3 | TR50 (thymidine ratio relative to ovarian cancer cells) (human fibroblasts; listed as solamargine): greater than 2 | IC50 (human fibroblasts; Homo sapiens, Fibroblast, read-out: LD50 (dose to inhibit 50% tritiated thymidine uptake)): 3.65 µM | viability at 11.5 µM (human fibroblasts; Homo sapiens, Fibroblast, read-out: Percentage Cell Survival): 23 ± 1.7% | viability at 11.5 µM ([2]; Homo sapiens, Lymphoblastoid cell, read-out: Percentage Cell Survival): 35 ± 4.2% | TR50 (thymidine ratio relative to ovarian cancer cells) ([2]; listed as Solam): 2.5 | TR50 (thymidine ratio relative to ovarian cancer cells) ([2]; listed as solamargine): greater than 2 | IC50 ([2]; human gammaherpesvirus 4, LCL, read-out: LD50 (dose to inhibit 50% tritiated thymidine uptake)): 3.95 µM | viability at 2.4 µM (HeLa cells [3]; 1.1 μM/L galactose): 24 ± 2.2% | viability at 2.4 µM (HeLa cells [3]; 1.1 μM/L lactose): 24 ± 2.9% | viability at 2.4 µM (HeLa cells [3]; 1.1 μM/L rhamnose): 26 ± 2.1% | viability at 2.4 µM (HeLa cells [3]; no carbohydrate (first line)): 25 ± 2.6% | viability at 2.4 µM (HeLa cells [3]; no carbohydrate (second line, with rhamnose)): 24 ± 4% | viability at 3.1 µM (lymphoblastoid cells; [10]): 42% | viability at 3.1 µM (lymphoblastoid cells; [11]): 47% | viability at 3.1 µM (lymphoblastoid cells; 1.1 μM/L rhamnose): 36 ± 4.5% | viability at 3.1 µM (lymphoblastoid cells; no carbohydrate): 34 ± 3% | viability at 3.1 µM (fibroblasts; [10]): 101% | viability at 3.1 µM (fibroblasts; [11]): 100% | viability at 3.1 µM (fibroblasts; 1.1 μM/L rhamnose, *** p < 0.001): 87% | viability at 3.1 µM (fibroblasts; no carbohydrate): 58 ± 9.6% | time to immobilization of sperm (human spermatozoa; solamargine 1 mg/ml): ≤ 15 s | effect on spermatozoa (words) (human spermatozoa): inhibit human spermatozoal motility | effect on spermatozoa (words) (human spermatozoa; listed as solamargine): dead intact spermatozoa | preferential cytotoxicity for cancer cells ([4]; cancer cells relative to other cell types): preferentially inhibits the uptake of tritiated thymidine by cancer cells | LD50 for ovarian cancer cell line and HeLa cells less than that for lymphoblastoid cells and fibroblasts ([4]; fold lower): 1.5-3.3 times | viability at 11.5 µM (in vitro [5]): 76 ± 9.6% | viability at 11.5 µM (in vitro [6]): 93 ± 4.4% | cytotoxicity (words) (unstimulated lymphocytes): limited effect; also recorded: limited cytotoxicity | cytotoxicity (words) [7]: absence of cytotoxicity | cytotoxicity (words) [8]: absence of cytotoxicity | cytotoxicity (words) [9]: limited effect; also recorded: limited cytotoxicity
